{"source": "patent US6699879B1", "about": "“Phenyl urea and phenyl thiourea derivatives as orexin receptor antagonists” (SmithKline Beecham p.l.c., priority 1999, dated 2004)", "key": {"freely-feeding rats": {"test_system": "freely-feeding rats", "settings": "central administration, 4 hour time period; cited from earlier work"}, "orexin receptors": {"test_system": "orexin receptors", "experiment": "Rat sleep/EEG studies, central administration", "type": "in vivo", "settings": "central administration at the onset of the normal sleep period; largely at the expense of paradoxical sleep and slow wave sleep 2", "text": "Therefore antagonists of its receptor may be useful in the treatment of sleep disorders including insomnia."}}, "note": "No end group written: not given here.", "data": [{"substance": "orexin-A: ligand for the orexin-1 receptor, an agonist of the orexin receptors; 33-residue peptide, sequence in the 1st table (QPLPDCCRQKTCSCRLYELLHGAGNHAAGILTL-NH2; not fully specified (residue 1, bridges); ends and bridges not checked; UniProt O43612 34-66, looked up)", "values": [{"measurement": "increase in food intake over control rats receiving vehicle", "setting": "freely-feeding rats", "value": "approximately four-fold"}, {"measurement": "effect on arousal", "setting": "orexin receptors", "value": "dose-related increase in arousal"}]}]}
